Values after ≈ are worked out from the molar mass of the structure shown. Where two headings read alike, the source gives them in different places.
Columns and labels:
[1] = system: Mycobacterium tuberculosis H37Ra ITM-M006710 (ATCC 9431); test: Antimycobacterial MIC, microdilution broth / Alamar Blue (resazurin); format: cell-based; conditions: Mycobacterium tuberculosis, 120 h, Middlebrook 7H9, resazurin after 120 h; read-out: Mtb H37Ra MIC
[2] = system: M. smegmatis DSM 43465 (ATCC 607); test: Antimycobacterial MIC, microdilution broth / resazurin; format: cell-based; conditions: Mycolicibacterium smegmatis; resazurin after 48 h; read-out: MIC M. smegmatis
[3] = system: Aspergillus fumigatus ATCC 204305; test: Antifungal microdilution broth (EUCAST); conditions: Aspergillus fumigatus
[4] = system: Escherichia coli CCM 3954 (ATCC 25922); test: Antibacterial microdilution broth (EUCAST); format: cell-based; conditions: Escherichia coli; 24h incubation; read-out: MIC EC
[5] = system: Staphylococcus aureus subsp. aureus (MRSA) CCM 4750 (ATCC 43300); test: Antibacterial microdilution broth (EUCAST); format: cell-based; conditions: Staphylococcus aureus; 24h incubation; read-out: MIC MRSA
[6] = system: Staphylococcus epidermidis CCM 4418 (ATCC 12228); test: Antibacterial microdilution broth (EUCAST); format: cell-based; conditions: Staphylococcus epidermidis; 24h incubation; read-out: MIC SE
[7] = system: Enterococcus faecalis CCM 4224 (ATCC 29212); test: Antibacterial microdilution broth (EUCAST); format: cell-based; conditions: Enterococcus faecalis; 24h incubation; read-out: MIC EF
[8] = system: M. aurum DSM 43999 (ATCC 23366); test: Antimycobacterial MIC, microdilution broth / resazurin; format: cell-based; conditions: Mycolicibacterium aurum, read-out: MIC M. aurum
[9] = system: Staphylococcus aureus subsp. aureus CCM 4223 (ATCC 29213); test: Antibacterial microdilution broth (EUCAST); format: cell-based; conditions: Staphylococcus aureus; 24h incubation; read-out: MIC SA
HepG2 cells = test: HepG2 cytotoxicity screening (CellTiter 96); format: cell-based, human; conditions: Homo sapiens, HepG2, 24 h, 24 h incubation, CellTiter 96; * above highest tested concentration; ** limited by insolubility in medium
[10] = system: Candida parapsilosis CCM 8260 (ATCC 22019); test: Antifungal microdilution broth (EUCAST); conditions: Lodderomyces parapsilosis
[11] = system: Candida albicans CCM 8320 (ATCC 24433); test: Antifungal microdilution broth (EUCAST); conditions: Candida albicans; for MIC: 24 h
[12] = system: Pseudomonas aeruginosa CCM 3955 (ATCC 27853); test: Antibacterial microdilution broth (EUCAST); format: cell-based; conditions: Pseudomonas aeruginosa; 72h incubation; read-out: MIC PA
[13] = system: Trichophyton interdigitale CCM 8377 (ATCC 9533); test: Antifungal microdilution broth (EUCAST); conditions: Trichophyton interdigitale
[14] = RP-UHPLC lipophilicity parameter log k’w; format: physicochemical; conditions: for log k’w: RP-UHPLC, acetonitrile/water, log k extrapolated to 0% acetonitrile; for logkw: experimental lipophilicity parameter
From the text: Lipophilicity and water solubility of the drug candidates are important parameters as they are often directly related to their ADME properties in the organism. Lipophilicity is usually expressed as the logarithm of the partition coefficient in n-octanol/water (log P). Due to its laborious determination, especially in the HTS screening, other experimental methods such as RP-HPLC log k’w or purely computational approaches such as Clog P were proposed and have been established as reasonable estimators of true lipophilicity. To investigate the changes in lipophilicity upon introduction of oxazole in the title compounds, we determined the log k’w of all derivatives and compared respective values among the pairs.
The log k of the synthesized compounds was measured using the same instrument (single measurement per concentration), software, and column as was used in the purity evaluation. Working solutions were diluted as described above for purity determination. The log k parameter was calculated after the UHPLC measurements using isocratic mode with mobile phase acetonitrile (B)/water (A) in a set of concentrations of 40, 45, 50% and 20, 30, 40% B for subtype I and subtype II, respectively.

[15] = system: Acinetobacter baumannii DSM 30007 (ATCC 19606); test: Antibacterial microdilution broth (EUCAST); format: cell-based; conditions: Acinetobacter baumannii; 24h incubation; read-out: MIC AB
[16] = system: Candida krusei CCM 8271 (ATCC 6258); test: Antifungal microdilution broth (EUCAST); conditions: Pichia kudriavzevii; for MIC: 24 h
[17] = system: Lichtheimia corymbifera CCM 8077; test: Antifungal microdilution broth (EUCAST); conditions: Lichtheimia corymbifera
[18] = system: Candida tropicalis CCM 8264 (ATCC 750); test: Antifungal microdilution broth (EUCAST); conditions: Candida tropicalis; for MIC: 24 h
[19] = system: Aspergillus flavus CCM 8363; test: Antifungal microdilution broth (EUCAST); conditions: Aspergillus flavus
[20] = system: M. kansasii DSM 44162 (ATCC 12478); test: Antimycobacterial MIC, microdilution broth / resazurin; format: cell-based; conditions: Mycobacterium kansasii; resazurin after 96 h; read-out: MIC M. kansasii
[21] = system: M. avium DSM 44156 (ATCC 25291); test: as above; format: cell-based, Mycobacterium avium; conditions: Mycobacterium avium; resazurin after 96 h; read-out: MIC M. avium
[22] = ATCC204305, 24 h, read-out: MIC AF
[23] = CCM8077, 24 h, read-out: MIC LC
[24] = CCM8363, 24 h, read-out: MIC AFla
[25] = ATCC204305, 48 h, read-out: MIC (visual detection)
[26] = ATCC22019|CCM8260, 24 h, read-out: MIC (visual detection)
[27] = read-out: MIC (visual detection)
[28] = ATCC9533|CCM8377, 48 h, read-out: MIC (visual detection)
[29] = CCM8077, 48 h, read-out: MIC (visual detection)
[30] = CCM8363, 48 h, read-out: MIC (visual detection)

Structure (SMILES)	MIC [1] [µg/mL]	MIC [2] [µg/mL]	MIC [3, 22] [µM]	MIC [4] [µM]	MIC [5] [µM]	MIC [6] [µM]	MIC [7] [µM]	MIC [9] [µM]	MIC ([10]; 24 h, read-out: MIC CP) [µM]	MIC ([11]; read-out: MIC CA) [µM]	MIC [12] [µM]	MIC ([13]; 72 h, read-out: MIC TI) [µM]	log k’w [14]	logkw [14]	MIC [15] [µM]	MIC ([16]; read-out: MIC CK) [µM]	melting point [°C]	MIC [17, 23] [µM]	MIC ([18]; read-out: MIC CT) [µM]	MIC [19, 24] [µM]	other results
O=C(Nc1ncco1)c1ccccn1 [Compound 1b]	62.5 (≈ 330 µM)	125 (≈ 661 µM)	> 500	> 500	250 (≈ 47.3 µg/mL)	125 (≈ 23.6 µg/mL)	> 500	125 (≈ 23.6 µg/mL)	> 500	> 500	> 500	> 500	0.854	0.8542	> 500	> 500	129 to 131	> 500	> 500	> 500	MIC ([8]; resazurin after 72 h): 31.2 µg/mL (≈ 165 µM); IC50 (HepG2 cells): > 1000 µM
O=C(Nc1ncco1)c1ccncc1 [Compound 3b]	15.6 (≈ 82.6 µM)	62.5 (≈ 330 µM)	> 500	> 500	500 (≈ 94.6 µg/mL)	500 (≈ 94.6 µg/mL)	> 500	250 (≈ 47.3 µg/mL)	> 500	500	> 500	500	0.396	0.3955	> 500	500	175 to 177	500	> 500	> 500	MIC ([8]; 72 h): 15.6 µg/mL (≈ 82.6 µM); IC50 (HepG2 cells): > 1000 µM
O=C(Nc1nccs1)c1cnccn1 [Compound 8a]	62.5 (≈ 303 µM)	≥ 500	> 500	> 500	> 500	500 (≈ 103 µg/mL)	> 500	> 500	> 500	> 500	> 500	> 500	1.222	1.222	> 500	> 500		> 500	> 500	> 500	MIC ([8]; resazurin after 72 h): 125 µg/mL (≈ 606 µM); MIC [20]: 31.2 µg/mL (≈ 152 µM); MIC [21]: 250 µg/mL (≈ 1210 µM)
O=C(Nc1ncco1)c1cnccn1 [Compound 8b]	31.2 (≈ 164 µM)	≥ 500	> 500	> 500	> 500	> 500	> 500	> 500	> 500	> 500	> 500	500	0.154	0.154	> 500	> 500	160 to 164	500	> 500	> 500	MIC ([8]; 72 h): 31.2 µg/mL (≈ 164 µM); MIC [20]: 15.6 µg/mL (≈ 82.2 µM); MIC [21]: 62.5 µg/mL (≈ 329 µM)
O=C(Nc1ncco1)c1cnc2ccccc2n1 [Compound 10b]	15.6 (≈ 65 µM)	62.5 (≈ 260 µM)	500	> 500	> 500	500 (≈ 120 µg/mL)	> 500	500 (≈ 120 µg/mL)	500	500	> 500	250	1.493	1.493	> 500	250	163 to 165	500	500	> 500	MIC ([8]; 72 h): 15.6 µg/mL (≈ 65 µM); IC50 (HepG2 cells): > 1000 µM
O=C(Nc1nc(-c2ccccc2)co1)c1ccncc1 [Compound 13b]	31.2 (≈ 118 µM)	125 (≈ 471 µM)	> 500	> 500	> 500	125 (≈ 33.2 µg/mL)	> 500	500 (≈ 133 µg/mL)	> 500	> 500	> 500	500	1.163	1.163	> 500	> 500	168 to 171	> 500	> 500	> 500	MIC ([8]; 72 h): 31.2 µg/mL (≈ 118 µM); IC50 (HepG2 cells): 879 µM
C[C@@H]1[C@H](O)[C@@H](C)/C=C/C=C/C=C/C=C/C=C/C=C/C=C/[C@H](O[C@@H]2O[C@H](C)[C@@H](O)[C@H](N)[C@@H]2O)C[C@@H]2O[C@](O)(C[C@@H](O)C[C@@H](O)[C@H](O)CC[C@@H](O)C[C@@H](O)CC(=O)O[C@H]1C)C[C@H](O)[C@H]2C(=O)O [amphotericin B, reference compound]																					IC90 ([3]; ATCC204305, 48 h, read-out: IC90 (spectrophotometric detection)): 4 µg/mL (≈ 4.33 µM); MIC [3, 25]: 4 µg/mL; IC90 ([10]; ATCC22019|CCM8260, 24 h, read-out: IC90 (spectrophotometric detection)): 0.5 µg/mL (≈ 0.541 µM); MIC [10, 26]: 0.5 µg/mL; MIC [11, 27]: 1 µg/mL; IC90 ([11]; ATCC24433|CCM8320, 24 h, read-out: IC90 (spectrophotometric detection)): 1 µg/mL (≈ 1.08 µM); IC90 ([13]; ATCC9533|CCM8377, 48 h, read-out: IC90 (spectrophotometric detection)): 1 µg/mL (≈ 1.08 µM); MIC [13, 28]: 1 µg/mL; MIC [16, 27]: 1 µg/mL; IC90 ([16]; ATCC6258|CCM8271, 24 h, read-out: IC90 (spectrophotometric detection)): 1 µg/mL (≈ 1.08 µM); IC90 ([17]; CCM8077, 48 h, read-out: IC90 (spectrophotometric detection)): 1 µg/mL (≈ 1.08 µM); MIC [17, 29]: 1 µg/mL; MIC [18, 27]: 1 µg/mL; IC90 ([18]; ATCC750|CCM8264, 24 h, read-out: IC90 (spectrophotometric detection)): 1 µg/mL (≈ 1.08 µM); IC90 ([19]; CCM8363, 48 h, read-out: IC90 (spectrophotometric detection)): 4 µg/mL (≈ 4.33 µM); MIC [19, 30]: 4 µg/mL
C[C@@H](c1ncncc1F)[C@](O)(Cn1cncn1)c1ccc(F)cc1F [voriconazole, reference compound]																					IC50 ([3]; ATCC204305, 48 h, read-out: IC50 (spectrophotometric detection)): 0.25 µg/mL (≈ 0.716 µM); MIC [3, 25]: 1 µg/mL; IC50 ([10]; ATCC22019|CCM8260, 24 h, read-out: IC50 (spectrophotometric detection)): 0.03 µg/mL (≈ 0.0859 µM); MIC [10, 26]: > 16 µg/mL; MIC [11, 27]: > 16 µg/mL; IC50 ([11]; ATCC24433|CCM8320, 24 h, read-out: IC50 (spectrophotometric detection)): 0.03 µg/mL (≈ 0.0859 µM); IC50 ([13]; ATCC9533|CCM8377, 48 h, read-out: IC50 (spectrophotometric detection)): 1 µg/mL (≈ 2.86 µM); MIC [13, 28]: > 16 µg/mL; MIC [16, 27]: > 16 µg/mL; IC50 ([17]; CCM8077, 48 h, read-out: IC50 (spectrophotometric detection)): 8 µg/mL (≈ 22.9 µM); MIC [17, 29]: > 16 µg/mL; MIC [18, 27]: > 16 µg/mL; IC50 ([19]; CCM8363, 48 h, read-out: IC50 (spectrophotometric detection)): 1 µg/mL (≈ 2.86 µM); MIC [19, 30]: > 16 µg/mL
